This is an account of results in patent publication EP0302760A2, “Antiviral therapy for hepatitis B using 2',3'-dideoxynucleosides” (priority 1987, dated 1989).

Series [1] has as its system duck hepatitis B virus (DHBV). Description: Dot blot hybridization of DHBV DNA from DHBV-infected primary duck hepatocyte cultures. In kind it is cell-based. The conditions noted are these: for inhibition at 10 µg/mL / inhibition at 1 µg/mL / IC50: Duck hepatitis B virus, Hepatocyte; for inhibition at 10 µg/mL / inhibition at 1 µg/mL: 480 h; for inhibition at 10 µg/mL: read-out: PERCENTAGE INHIBITION, 10 µg/ml; for inhibition at 1 µg/mL: read-out: PERCENTAGE INHIBITION, 1 µg/ml; for IC50: DHBV-infected hepatocytes, drug from day 2, DNA extracted on day sixteen, radioactivity of dots counted, read-out: concentrations of nucleoside analog required to inhibit the virus replication by 50% (ID₅₀). As for the experimental part:
Dose response curves for the purine 2′,3′-dideoxynucleosides and pyrimidine 2′,3′-dideoxynucleosides have been established by using the duck hepatitis B virus (DHBV) infected hepatocyte system. The DHBV-infected hepatocyte cultures were established as described in Example 1. Dideoxynucleoside analogs were added to the media of the hepatocyte cultures on day 2 and maintained in culture with media changes every two days. On day sixteen the DNA was extracted from the cells and the dot blots performed using the ³²P-labelled DHBV probe. The radioactivity of each "dot" was quantitated by cutting out the "dot" and counting the radioactivity. The abbreviations used in Figure 1, setting out the dose response curves, are as follows: ddA = 2′,3′-dideoxyadenosine; ddG = 2′,3′-dideoxyguanosine; ddDAPR = 2,6-diaminopurine 2′,3′-dideoxyriboside; ddI = 2′,3′-dideoxyinosine; ddT = 2′,3′-dideoxythymidine; ddC = 2′,3′-dideoxycytidine.
Newborn ducklings are infected with DHBV. After 5 to 7 days post-infection, samples of blood are taken from the ducklings and examined for DHBV DNA using dot hybridization with a specific DNA probe [Mason et al, Proc. Natl. Acad. Sci. USA 79, 3997-4001 (1982)]. The livers are removed from dot-blot positive ducklings and used to produce primary hepatocyte cultures infected with DHBV as previously described. (Tuttleman et al, J. of Virology, 58, 17-25). After 2 days in culture, antiviral agents are added to the culture media. The media are changed every 2 days and at selected times, the cells are removed and the total DNA extracted.
The DNA is spotted on nitrocellulose paper and probed with the ³²P-labelled DHBV DNA probe in accordance with the following procedure. The DNA from DHBV-infected hepatocytes was extracted and spotted onto a nitrocellular filter. The above described ³²P-nick translated - DHBV DNA (pDH-010=DHBV) probe was used. The DNA was extracted from 6-cm cell culture dishes at various times post-plating. In the VC group, cells were harvested at 2, 6, 8, 10, 14, 18 and 20 days. Duplicate samples were spotted for days 14, 18 and 20. In drug-treated groups, cells were harvested on days 8, 14 and 20. In Figure 1, this is from left to right. Drugs were added to the culture at 2 days post-plating and maintained throughout media changes every 2 days. The concentrations (µg/ml) used are indicated in Figure 1 for 2′,3′-dideoxythymidine (ddT), 2′,3′-dideoxycytidine (ddC), adenine arabinoside (ara A), 2′,3′-dideoxyadenosine (ddA) and 2′,3′-dideoxyguanosine (ddG). The total intracellular DNA was extracted from cells using the standard phenol extraction method. The cells in a 6-cm diameter Petri dish (approximately 5 x 10⁶ cells) were lysed in a lysis buffer containing 0.2% SDS, 150 mM Tris-HCl pH 8.0, 10 mM EDTA, 5 mM EGTA, and 150 mM NaCl. The cell lysate was digested with 0.5 mg/ml of pronase E (available from Sigma) at 37°C for 2 hours and deproteinized by extraction with an equal volume of phenol saturated with 20 mM Tris HCl, pH 7.5, 0.5 mM EDTA and 0.1% 8-hydroxyquinoline. Concentrated ammonium acetate [pH 7.0 (2.5 M)] was added to the aqueous phase to yield a 0.25 M ammonium acetate solution and the nucleic acids were precipitated with 2 volumes of 100% ethanol. The pellet of nucleic acid was washed with ethanol and dried. The DNA was dissolved in a solution containing 12.5 mM Tris HCl, pH 7.5, 10 mM EDTA, 30% glycerol and 0.01% bromophenol blue. One twelfth of the DNA sample was spotted onto the nitrocellulose for dot-blot analysis. ddA, ddG, ddC and ddT were purchased from Pharmacia. 2,6-Diaminopurine 2′,3′-dideoxyriboside [or 2,6-diamino-9-2,3-dideoxy-β-D-glycero-pentofuranosyl)purine] (ddDAPR) can be prepared by a procedure recently used for efficient conversion of adenosine into its ddAdo derivative (Robins et al, Tetrahedron Lett., 25, […], 1984; Hansske and Robins, Tetrahedron Lett., 26, 4295-4298, 1985).

The next series concerns extracellular DHBV. Description: Southern blot analysis of extracellular virion DNA from culture media of DHBV-infected hepatocytes. It is filed as cell-based, duck hepatitis B virus (DHBV). The conditions noted are these: 1 µg/ml; culture media pooled from day 16 to day 20. The text has this:
Southern blot analysis of the extracellular virion DNA was separated on a 1.5% agarose gel. Culture media were pooled from the day 16 to day 20 post-plating. Pelleted virions were digested with pronase and the DNA from the entire sample was applied to each lane. […] RC in Figure 3 indicated relaxed circular DNA.

For series [2] the following is noted: cited from earlier work.
The next series has as its system hepatitis B virus. The settings on record: cited from earlier work.
For the next series, the system named is DHBV DNA. Description: Southern blot analysis of intracellular viral DNA from DHBV-infected hepatocytes. In kind it is cell-based, duck hepatitis B virus (DHBV). The settings on record: for change in DHBV DNA forms in treated hepatocytes: from day 14 to day 20; for inhibition at 1 µg/mL: Duck hepatitis B virus, Hepatocyte, similar experiments to the Southern blot of Example 2. As for the experimental part:
Southern blot analysis of intracellular viral DNA was separated on a 1.5% agarose gel. The DNA was extracted from DHBV-infected hepatocytes in a 6-cm dish and one fifth of the total DNA was applied onto each lane. […] Drug-treated groups were harvested 14 and 20 days post-plating. The DNA samples from drug-treated hepatocytes were ddA (10 µg/ml), day 14 (lane 5) and day 20 (lane 6), ddA (1 µg/ml), day 14 (lane 7) and day 20 (lane 8), ddG (10 µg/ml), day 14 (lane 9) and day 20 (lane 10), ddG (1 µg/ml), day 14 (lane 11) and day 20 (lane 12). The size markers (Kilobases) were obtained from HindIII digested bacteriophage λ DNA.

Another series concerns duck hepatocytes. Put plainly: Toxicity (cell viability) in duck hepatocytes. It is filed as cell-based. The conditions noted are these: 100 µg/ml over a 10 day exposure. As for the experimental part: (§1) The toxicity of the purine 2′,3′-dideoxynucleosides has been tested in duck hepatocytes and monkey kidney cells (Vero) to reveal that decreased cell viability with ddA or ddG at 100 µg/ml over a 10 day exposure was not detected. As is known, several lymphocyte cell lines have been examined before for viability and function in the presence of 2′,3′-dideoxynucleosides. These cell lines have not shown decreased viability and function in the presence of 2′,3′-dideoxynucleosides.

In series [3] the test system is monkey kidney cells (Vero). Put plainly: Toxicity (cell viability) in monkey kidney cells. It is filed as cell-based. The conditions noted are these: 100 µg/ml over a 10 day exposure. As for the experimental part:
as §1

For the next series, the system named is DHBV. Description: In vivo treatment of Pekin ducks persistently infected with DHBV, dot blot of sera. The settings on record: 10 mg/kg twice daily by intramuscular injection, four ducks. On the procedure:
Additional tests were conducted to verify the activity in vivo. Four Pekin ducks with proven persistent infection with DHBV were treated with 2,6-diaminopurine 2′,3′-dideoxyriboside (ddDAPR). The animals received 10 mg/kg twice daily by intramuscular injection for two weeks. […] All five animals had evidence of persistent infection with DHBV. […] The untreated duck (number 5) was not bled at this time. […] The control animal (number 5) remained strongly positive after 2 weeks (row c, column 5).

The nature of series [4]: Conversion of ddDAPR to ddG in whole blood. The settings on record: whole blood from a duck, in 5 minutes; read-out: ddDAPR metabolized to ddG. In kind it is in vitro ADME. The text has this: We have also confirmed that ddDAPR is rapidly metabolized to ddG. This has been done using whole blood from a duck and measuring the rate of conversion of ddDAPR to ddG.
A further series deals with adenosine deaminase (Homo sapiens, UniProt P00813). The conditions noted are these: Balzarini et al 1987; cited from earlier work.
[5] abbreviates: densitometry scans of the dot hybridization at 20 days.

Values after ≈ are worked out from the molar mass of the structure shown. Read-outs that look alike come from different tables or passages of the source.

Sequence of adenosine deaminase (P00813 whole entry): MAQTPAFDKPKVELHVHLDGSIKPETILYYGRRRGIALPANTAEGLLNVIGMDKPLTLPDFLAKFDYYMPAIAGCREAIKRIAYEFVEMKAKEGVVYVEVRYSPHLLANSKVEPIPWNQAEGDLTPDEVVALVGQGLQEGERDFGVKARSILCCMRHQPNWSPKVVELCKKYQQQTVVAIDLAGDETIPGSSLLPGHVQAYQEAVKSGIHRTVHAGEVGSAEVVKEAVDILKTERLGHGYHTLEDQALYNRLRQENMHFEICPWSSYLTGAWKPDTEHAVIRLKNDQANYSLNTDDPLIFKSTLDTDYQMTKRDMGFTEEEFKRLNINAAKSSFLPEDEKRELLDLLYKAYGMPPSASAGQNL

As for “2′,3′-dideoxythymidine [ddT, reference compound]”, the “inhibition of DHBV replication” value in series [1] (dose response curve, day sixteen, Figure 1) is on record as “no inhibition”. Besides, the “production of extracellular virus” value in the series with extracellular DHBV was “fail to inhibit”.
Consider `Cc1cn([C@H]2C[C@H](N=[N+]=[N-])[C@@H](CO)O2)c(=O)[nH]c1=O` [AZT, 3′-azido-3′deoxythymidine], for which the peak plasma levels in [2] (after infusions of 1 mg/kg) and in [2] (after oral administration of 2 mg/kg) was 1 µg/mL throughout.
For the molecule `Nc1ncnc2c1ncn2[C@@H]1O[C@H](CO)[C@@H](O)[C@@H]1O` [araA, adenine arabinoside], the inhibition at 10 µg/mL in [1] (setting [5]) was approximately 63%. Moreover, the “toxicity associated with therapy” value with hepatitis B virus (chronic hepatitis B patients) is “bone marrow suppression, neuromuscular pain and neurotoxicity”. For the same molecule, the “treated patients that show some benefit from therapy” value in the series on hepatitis B virus (chronic hepatitis B, most open and controlled studies) is listed as “about 30%”.
Take `Nc1ncnc2c1ncn2[C@H]1CC[C@@H](CO)O1` [ddA, 2′,3′-dideoxyadenosine]: in series [1] (setting [5]), the inhibition at 1 µg/mL was more than 99% and the inhibition at 10 µg/mL was more than 99%. Besides, in series [1] (Figure 1), the IC50 came out at 0.12 µg/mL (≈ 0.51 µM). In the series on DHBV DNA (1 µg/ml, RC, CCC and SS forms), the “inhibition of the synthesis of all forms of DHBV DNA” value is on record as “very strong inhibition”. Further, the “change in DHBV DNA forms in treated hepatocytes” value in the series with DHBV DNA is recorded as “small increase in RC DNA”. Further, the “production of extracellular virus” value in the series with extracellular DHBV is recorded as “markedly decreased”. Further, in the series with duck hepatocytes, the decreased cell viability result is reported as “not detected”. Besides, the decreased cell viability entry in series [3] is “not detected”.
Turning to `Nc1ccn([C@H]2CC[C@@H](CO)O2)c(=O)n1` [ddC, 2′,3′-dideoxycytidine, reference compound], the “PERCENTAGE INHIBITION” value in [1] (1 µg/ml, densitometry scans of the dot hybridization at 20 days) is listed as “little inhibitory effect”. Further, in series [1] (setting [5]), the inhibition at 1 µg/mL came out at 0% and the inhibition at 10 µg/mL is approximately 57%. For the same molecule, the IC50 in series [1] (Figure 1) amounted to 40 µg/mL (≈ 189 µM). For the same molecule, the “production of extracellular virus” value with extracellular DHBV was “fail to inhibit”.
Take `Nc1nc(N)c2ncn([C@H]3CC[C@@H](CO)O3)c2n1` [ddDAPR, 2,6-diaminopurine 2′,3′-dideoxyriboside]: the inhibition at 1 µg/mL in [1] (setting [5]) was 98%; in the series on DHBV DNA (1 µg/ml) it was more than 95%. For the same molecule, the IC50 in series [1] (Figure 1) turned out to be 0.07 µg/mL (≈ 0.28 µM). Further, the entries for the “clearance of the virus from the sera” value in the series with DHBV (after 1 week) and in the series on DHBV (after 2 weeks) were “completely cleared the virus from their sera” and “cleared from the sera”, respectively. The metabolised at 5 min in series [4] is more than 95%. Moreover, the “deamination by adenosine deaminase” value on adenosine deaminase is given as “deaminated by adenosine deaminase”.
Consider `Nc1nc2c(ncn2[C@H]2CC[C@@H](CO)O2)c(=O)[nH]1` [ddG, 2′,3′-dideoxyguanosine], for which, in series [1] (setting [5]), the inhibition at 1 µg/mL is more than 99% and the inhibition at 10 µg/mL is more than 99%. Also, in [1] (Figure 1), the IC50 was determined as 0.07 µg/mL (≈ 0.279 µM). Besides, in the series with DHBV DNA, the “change in DHBV DNA forms in treated hepatocytes” value is reported as “decrease in all forms of DHBV DNA”. Moreover, the “production of extracellular virus” value in the series on extracellular DHBV was “markedly decreased”. For the same molecule, the decreased cell viability result with duck hepatocytes is given as “not detected”. The decreased cell viability result in [3] is recorded as “not detected”.
Take `OC[C@@H]1CC[C@H](n2cnc3c(O)ncnc32)O1` [ddI, 2′,3′-dideoxyinosine]: the inhibition at 1 µg/mL was 96% in series [1] (setting [5]) and more than 95% in the series with DHBV DNA (1 µg/ml).
